From ChEMBL document CHEMBL5523759, “Discovery of Novel HDAC3 Inhibitors with PD-L1 Downregulating/Degrading and Antitumor Immune Effects” (J Med Chem, 2024) come the findings set out here.

One assay deals with MCF7. Briefly: cells. To be noted: Homo sapiens, MCF7, 48 h.
Assay [1] addresses T1, Protein deacetylase HDAC6 (Homo sapiens, UniProt Q9UBN7).
T1 sequence (Q9UBN7 whole entry): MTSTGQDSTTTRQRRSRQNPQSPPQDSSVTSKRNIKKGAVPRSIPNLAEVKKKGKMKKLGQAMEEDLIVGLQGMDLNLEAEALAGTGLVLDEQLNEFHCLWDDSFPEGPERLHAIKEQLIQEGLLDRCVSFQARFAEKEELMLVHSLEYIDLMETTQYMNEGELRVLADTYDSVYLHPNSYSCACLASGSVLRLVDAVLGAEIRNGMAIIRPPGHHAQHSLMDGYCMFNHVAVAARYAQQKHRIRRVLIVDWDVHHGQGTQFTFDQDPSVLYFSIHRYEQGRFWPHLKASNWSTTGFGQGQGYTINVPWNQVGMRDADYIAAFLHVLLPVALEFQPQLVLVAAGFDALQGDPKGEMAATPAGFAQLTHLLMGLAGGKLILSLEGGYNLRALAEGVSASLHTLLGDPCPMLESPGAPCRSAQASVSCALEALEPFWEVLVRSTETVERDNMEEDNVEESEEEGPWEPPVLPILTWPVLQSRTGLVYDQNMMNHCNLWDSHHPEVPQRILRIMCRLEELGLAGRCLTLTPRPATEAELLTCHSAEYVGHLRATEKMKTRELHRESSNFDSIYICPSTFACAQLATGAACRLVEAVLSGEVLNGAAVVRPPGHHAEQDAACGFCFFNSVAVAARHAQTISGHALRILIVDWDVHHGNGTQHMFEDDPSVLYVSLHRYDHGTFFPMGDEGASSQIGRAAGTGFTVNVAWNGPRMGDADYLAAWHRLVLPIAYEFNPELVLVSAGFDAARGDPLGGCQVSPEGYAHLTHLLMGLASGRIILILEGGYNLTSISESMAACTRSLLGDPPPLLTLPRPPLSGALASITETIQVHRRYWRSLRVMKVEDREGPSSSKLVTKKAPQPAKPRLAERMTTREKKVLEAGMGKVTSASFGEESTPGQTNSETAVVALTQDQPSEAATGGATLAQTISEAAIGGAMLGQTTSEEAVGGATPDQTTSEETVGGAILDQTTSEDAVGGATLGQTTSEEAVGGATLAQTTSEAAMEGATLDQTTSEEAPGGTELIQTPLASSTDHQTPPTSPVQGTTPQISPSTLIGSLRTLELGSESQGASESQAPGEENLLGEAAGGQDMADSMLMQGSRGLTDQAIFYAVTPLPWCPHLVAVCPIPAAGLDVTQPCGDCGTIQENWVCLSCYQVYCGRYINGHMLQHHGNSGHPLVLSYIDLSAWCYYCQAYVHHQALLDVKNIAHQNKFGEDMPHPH
Kind of assay: Inhibition of human recombinant HDAC6 using Ac-Leu-Gly-Lys (Ac)-AMC as substrate preincubated with compound for 10 mins followed by substrate addition and measured after 45 mins by TECAN microtiter plate reader analysis.

A further assay has as its system B16-F10. Briefly: Antiproliferative activity against mouse B16-F10 cells assessed as reduction in cell viability measured for 48 hrs by MTT assay. It counts as functional, cell-based. To be noted: B16-F10, 48 h. For orientation: Tetrazolium assays rely on reduction of a dye to a coloured formazan, in cell work by metabolically active cells.
For the next assay, the system named is HCT-116. Kind of assay: cells. To be noted: Homo sapiens, HCT-116, 48 h.
The next assay concerns the target Histone deacetylase 3 (Homo sapiens, UniProt O15379). Briefly: Inhibition of human recombinant HDAC3 using Ac-Leu-Gly-Lys (Ac)-AMC as substrate preincubated with compound for 10 mins followed by substrate addition and measured after 45 mins by TECAN microtiter plate reader analysis.
The next assay has as its target T2, Histone deacetylase 7 (Homo sapiens, UniProt Q8WUI4).
T2 sequence (Q8WUI4 whole entry): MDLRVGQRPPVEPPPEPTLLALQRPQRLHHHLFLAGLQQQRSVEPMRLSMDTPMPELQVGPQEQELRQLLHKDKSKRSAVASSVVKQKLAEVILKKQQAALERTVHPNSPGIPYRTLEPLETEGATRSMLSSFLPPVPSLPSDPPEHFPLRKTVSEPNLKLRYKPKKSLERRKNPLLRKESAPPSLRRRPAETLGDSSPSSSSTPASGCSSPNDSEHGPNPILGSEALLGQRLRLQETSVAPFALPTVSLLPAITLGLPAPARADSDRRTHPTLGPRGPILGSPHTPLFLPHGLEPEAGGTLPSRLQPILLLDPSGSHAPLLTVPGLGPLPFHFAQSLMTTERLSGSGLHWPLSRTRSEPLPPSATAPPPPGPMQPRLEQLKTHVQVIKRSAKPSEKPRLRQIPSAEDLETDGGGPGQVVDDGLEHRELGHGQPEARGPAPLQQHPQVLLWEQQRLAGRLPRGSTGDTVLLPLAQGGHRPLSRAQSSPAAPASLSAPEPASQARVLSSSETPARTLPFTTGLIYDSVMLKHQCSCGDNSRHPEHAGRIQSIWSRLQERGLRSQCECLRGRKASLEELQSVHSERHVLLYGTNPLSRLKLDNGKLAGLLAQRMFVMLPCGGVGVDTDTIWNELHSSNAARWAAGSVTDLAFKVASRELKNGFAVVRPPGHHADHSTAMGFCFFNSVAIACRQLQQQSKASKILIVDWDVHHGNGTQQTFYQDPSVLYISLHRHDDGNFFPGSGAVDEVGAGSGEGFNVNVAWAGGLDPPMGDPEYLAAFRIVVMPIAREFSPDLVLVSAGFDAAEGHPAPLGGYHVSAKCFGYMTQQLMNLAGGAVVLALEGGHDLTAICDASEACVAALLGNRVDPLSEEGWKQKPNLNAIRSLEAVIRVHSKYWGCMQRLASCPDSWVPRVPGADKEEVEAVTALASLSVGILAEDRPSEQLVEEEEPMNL
Kind of assay: Inhibition of human recombinant HDAC7 using Ac-Leu-Gly-Lys (Tfa)-AMC as substrate preincubated with compound for 10 mins followed by substrate addition and measured after 45 mins by TECAN microtiter plate reader analysis.

A further assay concerns the target T3, Histone deacetylase 8 (Homo sapiens, UniProt Q9BY41).
T3 sequence (Q9BY41 whole entry): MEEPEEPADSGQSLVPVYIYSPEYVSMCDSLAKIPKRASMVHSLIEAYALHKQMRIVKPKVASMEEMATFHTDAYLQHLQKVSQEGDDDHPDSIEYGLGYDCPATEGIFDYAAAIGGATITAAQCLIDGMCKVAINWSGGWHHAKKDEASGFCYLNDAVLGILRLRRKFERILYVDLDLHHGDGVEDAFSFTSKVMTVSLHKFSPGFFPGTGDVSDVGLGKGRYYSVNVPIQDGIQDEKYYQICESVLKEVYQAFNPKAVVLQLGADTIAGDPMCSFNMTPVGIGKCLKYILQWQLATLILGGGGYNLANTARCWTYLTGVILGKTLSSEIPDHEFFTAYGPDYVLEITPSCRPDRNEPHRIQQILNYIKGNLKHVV
Kind of assay: Inhibition of human recombinant HDAC8 using Ac-Leu-Gly-Lys (Tfa)-AMC as substrate preincubated with compound for 10 mins followed by substrate addition and measured after 45 mins by TECAN microtiter plate reader analysis.

The test system of a further assay is HepG2. Kind of assay: Antiproliferative activity against human HepG2 cells assessed as reduction in cell viability measured for 48 hrs by MTT assay. In kind it is functional, cell-based. To be noted: HepG2, 48 h.
The next assay concerns the target Histone deacetylase 1 (Homo sapiens, UniProt Q13547). Kind of assay: Inhibition of human recombinant HDAC1 using Ac-Leu-Gly-Lys (Ac)-AMC as substrate preincubated with compound for 10 mins followed by substrate addition and measured after 45 mins by TECAN microtiter plate reader analysis.
The next assay concerns Jurkat. Kind of assay: Antiproliferative activity against human Jurkat T cells assessed as reduction in cell viability measured for 48 hrs by CCK-8 assay. In kind it is functional, cell-based.

Histone deacetylase 1, sequence (Q13547 whole entry): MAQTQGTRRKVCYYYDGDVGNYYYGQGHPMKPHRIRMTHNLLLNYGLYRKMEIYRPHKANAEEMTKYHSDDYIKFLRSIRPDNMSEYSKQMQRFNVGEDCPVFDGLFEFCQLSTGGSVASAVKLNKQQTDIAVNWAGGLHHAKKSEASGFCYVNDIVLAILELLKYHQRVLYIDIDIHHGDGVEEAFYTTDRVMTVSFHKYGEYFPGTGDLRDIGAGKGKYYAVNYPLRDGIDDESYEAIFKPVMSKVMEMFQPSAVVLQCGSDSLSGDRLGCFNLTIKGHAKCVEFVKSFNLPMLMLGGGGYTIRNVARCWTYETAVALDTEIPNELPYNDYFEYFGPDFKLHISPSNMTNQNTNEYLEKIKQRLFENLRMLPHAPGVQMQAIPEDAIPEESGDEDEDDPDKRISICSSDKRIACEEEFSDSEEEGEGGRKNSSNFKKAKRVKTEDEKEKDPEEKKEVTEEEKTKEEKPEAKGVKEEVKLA
Histone deacetylase 3, sequence (O15379 whole entry): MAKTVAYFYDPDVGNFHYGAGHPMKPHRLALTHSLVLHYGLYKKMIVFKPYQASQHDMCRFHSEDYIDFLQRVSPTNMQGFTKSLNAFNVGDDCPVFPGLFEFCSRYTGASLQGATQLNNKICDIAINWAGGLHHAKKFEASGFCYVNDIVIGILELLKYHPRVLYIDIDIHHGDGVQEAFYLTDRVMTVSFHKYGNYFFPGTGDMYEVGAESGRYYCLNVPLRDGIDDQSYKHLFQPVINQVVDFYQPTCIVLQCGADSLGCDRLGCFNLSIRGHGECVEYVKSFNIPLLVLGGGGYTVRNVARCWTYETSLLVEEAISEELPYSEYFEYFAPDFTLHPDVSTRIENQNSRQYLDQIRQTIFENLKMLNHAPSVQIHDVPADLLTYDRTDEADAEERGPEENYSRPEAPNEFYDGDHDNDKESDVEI
Description for HCT-116: Antiproliferative activity against human HCT-116 cells assessed as reduction in cell viability measured for 48 hrs by MTT assay
Description for MCF7: Antiproliferative activity against human MCF7 cells assessed as reduction in cell viability measured for 48 hrs by MTT assay

For orientation: IC50 means the midpoint of a concentration-inhibition curve. In the case of `Nc1ccccc1NC(=O)c1ccc(NC(=O)c2ccc(-c3ncc(CNc4ccccc4)s3)cc2)cc1`, the concentration for half-maximal inhibition (IC50) in the assay on MCF7 was 3190 nM; in [1], 9100 nM; in the assay on B16-F10, 1600 nM; in the assay with HCT-116, 1050 nM; on Histone deacetylase 3, 94 nM; on Histone deacetylase 7 it was above 10000 nM. The half-inhibitory concentration (IC50) is above 10000 nM at Histone deacetylase 8, above 10000 nM in the assay with HepG2, 640 nM on Histone deacetylase 1 and 70 nM in the assay with Jurkat.

Take `Nc1ccccc1NC(=O)c1ccc(NC(=O)c2ncc(CNc3ccccc3)s2)cc1`: the IC50 in the assay on Jurkat was 2520 nM.

As to `Nc1ccccc1NC(=O)CCCNC(=O)c1ncc(CNc2ccccc2)s1`, the IC50 in the assay with Jurkat was 560 nM.

Turning to `Nc1ccccc1NC(=O)CCCC(=O)Nc1ccc(-c2ncc(CNc3ccccc3)s2)cc1`, in the assay with Jurkat, the IC50 is 1020 nM.

Take `CCCNNC(=O)CCCCCNC(=O)c1ncc(CNc2ccccc2)s1`: the IC50 with Jurkat was above 10000 nM.

As for `Nc1ccccc1NC(=O)c1ncc(CNc2ccccc2)s1`, the IC50 in the assay on Jurkat came out at 400 nM.

For the molecule `Nc1ccccc1NC(=O)CCCCCCNC(=O)c1ncc(CNc2ccccc2)s1`, the IC50 in the assay with Jurkat is 450 nM.

With `Nc1ccccc1NC(=O)CCNC(=O)c1ncc(CNc2ccccc2)s1`, the IC50 in the assay with Jurkat came to 5150 nM.

In the case of `Nc1ccccc1NC(=O)/C=C/c1ccc(CNC(=O)c2ncc(CNc3ccccc3)s2)cc1`, the IC50 with Jurkat is 390 nM.

For `Nc1ccccc1NC(=O)c1ccc(CNC(=O)c2ncc(CNc3ccccc3)s2)cc1`, the IC50 is above 10000 nM in the assay with MCF7; above 10000 nM in [1]; 3220 nM in the assay on B16-F10; 1590 nM with HCT-116; above 10000 nM on Histone deacetylase 7; above 10000 nM on Histone deacetylase 8. The IC50 was 510 nM in the assay on HepG2, 230 nM at Histone deacetylase 1 and 240 nM in the assay with Jurkat.

With `Nc1ccccc1NC(=O)/C=C/c1ccc(-c2ncc(CNc3ccccc3)s2)cc1`, the IC50 in the assay with MCF7 was 4900 nM; in [1], 8010 nM; in the assay on B16-F10 it was 3490 nM; in the assay on HCT-116 it was 7450 nM; on Histone deacetylase 3 it was 110 nM; on Histone deacetylase 7 it was above 10000 nM. Moreover, the half-inhibitory concentration (IC50) on Histone deacetylase 8 was above 10000 nM; in the assay with HepG2 it was 900 nM; on Histone deacetylase 1 it was 310 nM; with Jurkat, 200 nM.

For the molecule `CCCNNC(=O)CCNC(=O)c1ncc(CNc2ccccc2)s1`, in the assay with Jurkat, the 50% inhibitory concentration (IC50) came to 4770 nM.

With `Nc1ccccc1NC(=O)CCCCCNC(=O)c1ncc(CNc2ccccc2)s1`, the half-inhibitory concentration (IC50) with Jurkat came out at 1060 nM.

Turning to `Nc1ccccc1NC(=O)CCCCCCC(=O)Nc1ccc(-c2ncc(CNc3ccccc3)s2)cc1`, the half-inhibitory concentration (IC50) in the assay with Jurkat is 290 nM.

Regarding `Nc1ccccc1NC(=O)/C=C/c1ccc(CNC(=O)c2ccc(-c3ncc(CNc4ccccc4)s3)cc2)cc1`, the concentration for half-maximal inhibition (IC50) is 4440 nM in the assay with MCF7; above 10000 nM in assay [1]; 8940 nM in the assay with B16-F10; above 10000 nM in the assay with HCT-116; 140 nM at Histone deacetylase 3; above 10000 nM at Histone deacetylase 7. In addition, the IC50 at Histone deacetylase 8 was 9080 nM; with HepG2, 740 nM; at Histone deacetylase 1, 720 nM; in the assay on Jurkat it was 100 nM.

Take `CCCNNC(=O)CNC(=O)c1ncc(CNc2ccccc2)s1`: the IC50 in the assay with Jurkat is above 10000 nM.

In the case of `Nc1ccccc1NC(=O)CCC(=O)Nc1ccc(-c2ncc(CNc3ccccc3)s2)cc1`, the IC50 with Jurkat was above 10000 nM.

Regarding `Nc1ccccc1NC(=O)CC(=O)Nc1ccc(-c2ncc(CNc3ccccc3)s2)cc1`, the IC50 in the assay on Jurkat was above 1220 nM.

Turning to `Nc1ccccc1NC(=O)CCCCNC(=O)c1ncc(CNc2ccccc2)s1`, the half-inhibitory concentration (IC50) in the assay with Jurkat was found to be 950 nM.

On to `CCCNNC(=O)CCCNC(=O)c1ncc(CNc2ccccc2)s1`, for which the IC50 with Jurkat worked out at 4880 nM.

Turning to `CCCNNC(=O)CCCCNC(=O)c1ncc(CNc2ccccc2)s1`, the concentration for half-maximal inhibition (IC50) in the assay on Jurkat turned out to be 1180 nM.

As to `CCCNNC(=O)c1ccc(NC(=O)c2ncc(CNc3ccccc3)s2)cc1`, the 50% inhibitory concentration (IC50) in the assay on Jurkat was 550 nM.

Turning to `CCCNNC(=O)c1ncc(CNc2ccccc2)s1`, in the assay with Jurkat, the IC50 was above 10000 nM.

Consider `Nc1ccccc1NC(=O)CCCCCC(=O)Nc1ccc(-c2ncc(CNc3ccccc3)s2)cc1`, for which the half-inhibitory concentration (IC50) in the assay with MCF7 is 7880 nM; in assay [1] it was 7720 nM; with B16-F10 it was 7200 nM; with HCT-116 it was 6580 nM; at Histone deacetylase 3, 150 nM; on Histone deacetylase 7, above 10000 nM. Moreover, the IC50 on Histone deacetylase 8 was above 10000 nM; with HepG2, 1590 nM; on Histone deacetylase 1, 340 nM; in the assay on Jurkat, 170 nM.

As to `Nc1ccccc1NC(=O)CCCCC(=O)Nc1ccc(-c2ncc(CNc3ccccc3)s2)cc1`, the concentration for half-maximal inhibition (IC50) in the assay with Jurkat was 670 nM.

`CCCNNC(=O)CCCCCCNC(=O)c1ncc(CNc2ccccc2)s1`: the half-inhibitory concentration (IC50) with Jurkat was found to be 1510 nM.

For `Nc1ccccc1NC(=O)CNC(=O)c1ncc(CNc2ccccc2)s1`, in the assay with Jurkat, the 50% inhibitory concentration (IC50) was above 10000 nM.

Take `Nc1ccccc1NC(=O)c1ccc(CNC(=O)c2ccc(-c3ncc(CNc4ccccc4)s3)cc2)cc1`: the IC50 in the assay on MCF7 was 4240 nM; in assay [1], 8310 nM; with B16-F10, 2980 nM; with HCT-116, 920 nM; on Histone deacetylase 3, 140 nM; on Histone deacetylase 7 it was above 10000 nM. Besides, the IC50 is above 10000 nM at Histone deacetylase 8, 370 nM in the assay with HepG2, 390 nM on Histone deacetylase 1 and 80 nM with Jurkat.
